Assay results: patent US10221163B2 (priority 2015, dated 2019)
Read-outs that look alike come from different tables or passages of the source.

Columns and labels:
[1] = test system: Pseudomonas aeruginosa efflux− (MB9799), IMP-1; format: cell-based; details: concentration restoring susceptibility to imipenem at 2 μg/mL in the presence of a class A, C, D serine β-lactamase inhibitor closely related to relebactam
Procedure, shortened: (§1)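 Microbroth MIC tests in PAO1-background strains with fixed imipenem and/or ceftazidime, usually at the CLSI breakpoint, plus fixed class A/C β-lactamase inhibitor against AmpC. MBL inhibitor titrated; concentration restoring susceptibility recorded and compared as fold difference between efflux+ MB9798 and efflux− MB9799.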

[2] = test system: Pseudomonas aeruginosa MB9798 vs MB9799; details: ratio MITC95 PA_9798/MITC95 PA_9799
Procedure, shortened: as §1

[3] = target: VIM-1 (Pseudomonas aeruginosa (strain ATCC 15692 / DSM 22644 / CIP 104116 / JCM 14847 / LMG 12228 / 1C / PRS 101 / PAO1), UniProt A0A0F7KYQ8); experiment: biochemical; details: CCF2-FA substrate, 30 pM enzyme, 2 hours at 25° C.
Procedure, shortened: (§2)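 IC50 values derive from 4-parameter fits of percent inhibition against inhibitor concentration on semi-log axes. Activity was monitored by fluorescence with the CCF2-FA substrate after a 2-hour, 25° C incubation of compound, enzyme and substrate.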

[4] = test system: Pseudomonas aeruginosa efflux+ (MB9798), IMP-1; format: cell-based; details: concentration restoring susceptibility to imipenem at 2 μg/mL in the presence of a class A, C, D serine β-lactamase inhibitor closely related to relebactam
Procedure, shortened: as §1

[5] = target: NDM-1 (Klebsiella pneumoniae, UniProt C7C422); experiment: biochemical; format: biochemical; details: fluorescence assay, CCF2-FA substrate, 1 pM enzyme, 2 hours at 25° C.; read-out: NDM-1 IC50
Procedure, shortened: as §2

[6] = target: IMP-1 (Serratia marcescens, UniProt P52699); experiment: biochemical; format: biochemical; details: fluorescence assay, CCF2-FA substrate, 2 pM enzyme, 2 hours at 25° C.; read-out: IMP-1 IC50
Procedure, shortened: as §2

[7] = test system: Escherichia coli expressing NDM-1 (CLB30005, CLB30016); format: cell-based; details: with imipenem 1 μg/ml; 95% inhibition of bacterial growth
Procedure, shortened: (§3)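 Growth by absorbance after 22–24 h at 35°C defined the read-out, with imipenem fixed at 1 μg/ml alongside compound. Inocula came from overnight blood-agar colonies at 35°C, resuspended in saline and diluted 1:100 in 1.1×CAMHB.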

[8] = test system: Klebsiella pneumoniae expressing VIM-1 (IHMA599644); format: cell-based; details: with imipenem 1 μg/ml; 95% inhibition of bacterial growth
Procedure, shortened: as §3

[9] = test system: Serratia marcescens expressing IMP-1 (CL5741); format: cell-based; details: with imipenem 1 μg/ml; 95% inhibition of bacterial growth
Procedure, shortened: as §3

[10] = fluorescence assay, read-out: VIM-1 IC50

Chain of NDM-1 (C7C422 whole entry, looked up, species assumed): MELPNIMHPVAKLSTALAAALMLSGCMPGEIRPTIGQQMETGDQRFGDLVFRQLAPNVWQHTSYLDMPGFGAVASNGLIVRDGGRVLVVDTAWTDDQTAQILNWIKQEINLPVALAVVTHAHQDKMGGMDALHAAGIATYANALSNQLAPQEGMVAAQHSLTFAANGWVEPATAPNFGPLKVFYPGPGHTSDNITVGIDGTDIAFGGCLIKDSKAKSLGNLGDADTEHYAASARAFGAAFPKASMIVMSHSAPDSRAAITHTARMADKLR
Chain of IMP-1 (P52699 whole entry, looked up, species assumed): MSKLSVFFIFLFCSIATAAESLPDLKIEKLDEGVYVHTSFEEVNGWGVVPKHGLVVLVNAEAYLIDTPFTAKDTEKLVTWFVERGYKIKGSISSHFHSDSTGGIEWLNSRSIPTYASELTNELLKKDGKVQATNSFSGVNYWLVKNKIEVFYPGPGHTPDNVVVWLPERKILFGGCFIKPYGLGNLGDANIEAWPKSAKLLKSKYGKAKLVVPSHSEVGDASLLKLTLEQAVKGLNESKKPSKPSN

| Structure (SMILES) | P. aeruginosa expressing IMP-1, efflux − (MB9799) MITC95 [1] [µM] | Efflux ratio [2] | IC50 [3, 10] [nM] | P. aeruginosa expressing IMP-1, efflux + (MB9798) MITC95 [4] [µM] | IC50 [5] [nM] | IC50 [6] [nM] | Escherichia coli expressing NDM-1 (CLB30016) MITC95 [7] [µM] | Klebsiella pneumoniae expressing VIM-1 (IHMA599644) MITC95 [8] [µM] | Serratia marcescens expressing IMP-1 (CL5741) MITC95 [9] [µM] | IC50 ([3]; VIM-1 IC50, fluorescence assay) [nM] |
| --- | --- | --- | --- | --- | --- | --- | --- | --- | --- | --- |
| NCCOCCNS(=O)(=O)c1ccc(-c2cccc3sc(N)nc23)c(-c2nnn[nH]2)c1S(N)(=O)=O [Example 203, 4-(2-aminobenzo[d]thiazol-4-yl)-N^1-(2-(2-aminoethoxy)ethyl)-3-(1H-tetrazol-5-yl)benzene-1,2-disulfonamide] | 1.563 | 0.50 | 0.185 | 0.7813 | 0.05 | 0.199 | 3.125 | 3.125 | 1.563 |  |
| NCCNC(=O)c1cccc(-c2ccc(S(=O)(=O)NCCN)c(S(N)(=O)=O)c2-c2nn[nH]n2)c1N [Example 204, 2-amino-N-(2-aminoethyl)-4′-(N-(2-aminoethyl)sulfamoyl)-5′-sulfamoyl-6′-(2H-tetrazol-5-yl)biphenyl-3-carboxamide] | 0.7813 | 1.00 | 0.226 | 0.7813 | 0.52 | 2.56 | 1.563 | 1.563 | 1.563 |  |
| Nc1nc2c(-c3ccc(S(=O)(=O)N4CC[C@@H](F)[C@H](N)C4)c(S(N)(=O)=O)c3-c3nn[nH]n3)cccc2[nH]1 [Example 205, 3-(2-amino-1H-benzo[d]imidazol-4-yl)-6-(((3R,4R)-3-amino-4-fluoropiperidin-1-yl)sulfonyl)-2-(2H-tetrazol-5-yl)benzenesulfonamide] | 1.563 | 8.00 | 3.63 | 12.5 | 1.2 | 5.89 | 1.563 | 3.125 | 3.125 |  |
| Nc1nc2c(-c3ccc(S(=O)(=O)NCC4COCCN4)c(S(N)(=O)=O)c3-c3nn[nH]n3)cccc2[nH]1 (stereo not drawn) [Example 206, 4-(2-amino-1H-benzo[d]imidazol-4-yl)-N1-(morpholin-3-ylmethyl)-3-(2H-tetrazol-5-yl)benzene-1,2-disulfonamide] | 1.563 | 2.00 |  | 3.125 | 0.0729 | 0.498 | 0.3906 | 1.563 | 1.563 | 0.211 |
| Nc1nc2c(-c3ccc(S(=O)(=O)NCC4CCN4)c(S(N)(=O)=O)c3-c3nn[nH]n3)cccc2[nH]1 (stereo not drawn) [Example 207, 4-(2-amino-1H-benzo[d]imidazol-4-yl)-N1-(azetidin-2-ylmethyl)-3-(2H-tetrazol-5-yl)benzene-1,2-disulfonamide] | 1.563 | 2.00 |  | 3.125 | 0.274 | 0.999 | 3.125 | 3.125 | 1.563 | 0.69 |
| C[C@H](N)CC(=O)NS(=O)(=O)c1ccc(-c2cccc3[nH]c(N)nc23)c(-c2nn[nH]n2)c1S(N)(=O)=O [Example 208, (S)-3-amino-N-((4-(2-amino-1H-benzo[d]imidazol-4-yl)-2-sulfamoyl-3-(2H-tetrazol-5-yl)phenyl)sulfonyl)butanamide] | 3.125 | 1.00 | 1.23 | 3.125 | 0.449 | 3.12 | 1.563 | 6.25 | 3.125 |  |
| Nc1ncccc1-c1ccc(S(=O)(=O)N[C@@H]2CCNC2)c(S(N)(=O)=O)c1-c1nn[nH]n1 [Example 209, (R)-4-(2-aminopyridin-3-yl)-N^1-(pyrrolidin-3-yl)-3-(2H-tetrazol-5-yl)benzene-1,2-disulfonamide] | 1.172 | 1.33 | 0.177 | 1.563 | 0.148 | 3.1 | 0.293 | 1.563 | 0.7813 |  |
| NCC(CN)NS(=O)(=O)c1ccc(-c2cccnc2N)c(-c2nn[nH]n2)c1S(N)(=O)=O [Example 210, 4-(2-aminopyridin-3-yl)-N1-(1,3-diaminopropan-2-yl)-3-(2H-tetrazol-5-yl)benzene-1,2-disulfonamide] | 1.563 | 2.00 | 0.197 | 3.125 | 0.126 | 1.5 | 0.1953 | 3.125 | 0.7813 |  |
| CC(C)(CN)NS(=O)(=O)c1ccc(-c2cccnc2N)c(-c2nn[nH]n2)c1S(N)(=O)=O [Example 211, N1-(1-amino-2-methylpropan-2-yl)-4-(2-aminopyridin-3-yl)-3-(2H-tetrazol-5-yl)benzene-1,2-disulfonamide] | 3.125 | 4.00 | 0.182 | 12.5 | 0.156 | 2.25 | 1.563 | 6.25 | 3.125 |  |
| NC[C@H](N)CNS(=O)(=O)c1ccc(-c2cccnc2N)c(-c2nn[nH]n2)c1S(N)(=O)=O [Example 213, (S)-4-(2-aminopyridin-3-yl)-N1-(2,3-diaminopropyl)-3-(2H-tetrazol-5-yl)benzene-1,2-disulfonamide] | 1.563 | 2.00 | 0.113 | 3.125 | 0.0759 | 1.54 | 0.3906 | 1.563 | 0.7813 |  |
| Nc1ncccc1-c1ccc(S(=O)(=O)NC[C@@H](N)CO)c(S(N)(=O)=O)c1-c1nn[nH]n1 [Example 214, (R)-N1-(2-amino-3-hydroxypropyl)-4-(2-amino-pyridin-3-yl)-3-(2H-tetrazol-5-yl)benzene-1,2-disulfonamide] | 1.563 | 8.00 | 0.732 | 12.5 | 0.566 | 8.49 | 0.7813 | 3.125 | 1.563 |  |
